# Patent publication US6596477B1, “Treatment and prevention of immunodeficiency virus infection by administration of non-pyrogenic derivatives of lipid A” (University of Maryland Biotechnology Institute, priority 1998, dated 2003)
# How the values were obtained:
# mice [1] = conditions: cited from earlier work
# HIV-1 [2] = conditions: AIDS patients; cited from earlier work
# HIV-1 [3] = conditions: alone; cited from earlier work
# human PBMCs [4] = test: human PBMC activation assay: proinflammatory cytokines (TNFα, IL-1β, IL-6) in supernatants by capture ELISA; type: cell-based; conditions: 1 μg/ml; 8 hr
# Method: 50 ml of whole blood is mixed with an equal volume of RPMI (Life Technologies) and PBMCs are isolated by density gradient using lymphocyte separation medium according to the manufacturer's directions (Organon). The PBMCs are washed twice with RPMI then resuspended in 6 ml of ice cold sterile water and placed on ice for 30 sec to lyse the erythrocytes. The osmolarity is adjusted by adding 2 ml of ice cold 3.5% (w/v) NaCl; the PBMCs are harvested by centrifugation, washed with RPMI and resuspended in complete medium (CM; RPMI containing pyruvate, glutamine, PenStrep, and 10% endotoxin-free human AB serum (Life Technologies) at a density of 6×10^6 PBMCs/ml. CM containing the preparations to be assayed are placed into duplicate wells of a 96-well flat bottom culture late (Costar) at double the target final concentration. An equal volume of CM containing the PBMCs then is added to these wells and the culture plates are incubated at 37° C. in 5% CO2 for 8 hr. The supernatants are then removed and stored at 70° C. Quantitation of TNFα, IL-1β, IL-6, MIP-1α, MIP-1β and RANTES in these culture supernatants is achieved by capture ELISA (R&D Systems).
# human PBMCs [5] = test: β chemokine (MIP-1α, MIP-1β, RANTES) secretion from human PBMCs, dose and time course, capture ELISA; type: cell-based
# human PBMCs [6] = test: LPS antagonist test: TNFα from human PBMCs stimulated with W3110 LPS mixed with antagonist; type: cell-based; conditions: 1 μg/ml mixed with W3110 LPS 10 ng/ml; 8 hr
# Method: Quantitation of TNFα, IL-1β, IL-6, MIP-1α and MIP-1β in these culture supernatants was achieved by capture ELISA (R&D Systems).
# W3110 LPS (also cultured at 37° C.) from 1 ng/ml to 100 ng/ml alone and W3110 LPS (10 ng/ml) mixed with synthetic lipid IVA (1 μg/ml) were used as controls.
# HIV-1BAL = HIV-1BAL replication (p24 ELISA) in human PBMC-derived monocytes pretreated 24 hours; type: cell-based; conditions: 1000, 100 and 10 ng/ml for 24 hours; 19 days after infection; FIG. 5
# Method: To investigate the utility of the aforementioned findings, we investigated whether commercially available synthetic lipid IVA (ICN Inc.) suppressed the replication of HIV-1BAL in human PBMC-derived monocytes. Therefore, PBMCs were obtained as outlined in Section 6, see above, and placed into 12 well culture flat-bottom plate and incubated in CM (see example 1) for 12 days at 37° C. in 5% Co2. Non-adherent cells were removed and the cells were given fresh media every 2 days. After 6 days, the adherent PBMCs were treated with synthetic lipid IVA at 1000 ng/ml, 100 ng/ml and 10 ng/ml for 24 hours. The treated cells were subsequently infected with 0.200 ng of HIV-1BAL (Cocchi et al, supra) for 2 hours, washed twice and incubated for a further 19 days. Culture supernatants were then collected and the level of p24 in these supernatants was measured by ELISA (R&D Systems).
# PBMC-derived monocytes were obtained as outlined in Section 8, see above. […] The treated cells were subsequently infected with 0.200 ng of HIV-1BAL (Cocchi et al., supra) for 2 hours, washed twice and incubated for a further 19 days. Culture supernatants were then collected and the level of p24 in these supernatants was measured by ELISA (R&D Systems).
# mice [7] = conditions: cited from earlier work; remark: listed apart in the source
compound,measurement,setting,value
"2,3-diacyl-glucosamine-1-phosphate [lipid X]",pyrogenicity / toxicity in mice,mice [1],non-pyrogenic in mice
CC(C)c1nc(CN(C)C(=O)N[C@H](C(=O)N[C@@H](Cc2ccccc2)C[C@H](O)[C@H](Cc2ccccc2)NC(=O)OCc2cncs2)C(C)C)cs1 [ABT-538],CD4 lymphocyte counts,HIV-1 [2],CD4 lymphocyte counts to rise substantially
same,plasma HIV-1 levels,HIV-1 [2],causes plasma HIV-1 levels to decrease exponentially
"Cc1cn([C@H]2C[C@H](N=[N+]=[N-])[C@@H](CO)O2)c(=O)[nH]c1=O [AZT, 3′-azido-2′,3′-dideoxythymidine]",effect on viral load,HIV-1 [3],about 1 log reduction
CCCCCCCCCCC[C@@H](O)CC(=O)N[C@H]1[C@H](OC[C@H]2O[C@H](OP(=O)(O)O)[C@H](NC(=O)C[C@H](O)CCCCCCCCCCC)[C@@H](OC(=O)C[C@H](O)CCCCCCCCCCC)[C@@H]2O)O[C@H](CO)[C@@H](OP(=O)(O)O)[C@@H]1OC(=O)C[C@H](O)CCCCCCCCCCC [Lipid IVA],IL-1β in human PBMC culture supernatants after stimulation with LPS,human PBMCs [4],13 ± 1 pg/mL
same,IL-6 in human PBMC culture supernatants after stimulation with LPS,human PBMCs [4],7581 ± 20 pg/mL
same,induction of β chemokines,human PBMCs [5],without Inducing Measurable Levels of β Chemokines
same,pyrogenicity / toxicity in mice,mice [1],displays similar toxicity of that of lipid A in mice
same,TNFα,human PBMCs [6],<30 pg/mL
same,replication of HIV-1BAL (p24) in PBMC-derived monocytes,HIV-1BAL,suppresses the replication of HIV-1^BAL in a dose-dependent manner
"CCCCCC/C=C/CCCCCC(=O)O[C@H](CCCCCCCCCCC)CC(=O)NC1C(OCC2OC(OP(=O)(O)O)C(NC(=O)CC(=O)CCCCCCCCCCC)C(OC(=O)C[C@H](O)CCCCCCC)C2O)OC(CO)C(OP(=O)(O)O)C1OC(=O)C[C@H](O)CCCCCCC (stereo partly drawn) [RsDPLA, R. sphaeroides diphosphoryl lipid A]",level of RANTES after stimulation,human PBMCs [5]; FIG. 3,not significantly elevated
same,time of peak production of MIP-1α and MIP-1β after stimulation,"human PBMCs [5]; supernatants at 8, 16, 24, 48 hr, FIG. 3",24 h
same,MIP-1α secretion,"human PBMCs [5]; various doses, FIG. 2",stimulated the secretion of MIP-1α and MIP-1β in a dose-dependent manner
same,MIP-1β secretion,"human PBMCs [5]; various doses, FIG. 2",stimulated the secretion of MIP-1α and MIP-1β in a dose-dependent manner
R. sphaeroides lipid A [RSLA],LPS induced lethality,mice [7],prevents LPS induced lethality in mice
